“And” between values parts separate entries of the source, which are not always exact repeats. Identical values can stand only once. Toxic doses and inconclusive results are not listed. Rule as the data show it: active = T/C of 150% or more; inactive = T/C below 125%.
System: L1210 leukemia ip in BDF1 mice, survival T/C
Assay: NCI In Vivo Anticancer Drug Screen. Data for tumor model L1210 Leukemia (intraperitoneal) in B6D2F1 (BDF1) mice
Conditions: endpoint: mean survival time, higher = longer survival
In short: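 Each compound was tested against a transplantable tumor grown in mice. The endpoint was survival, with treated animals benchmarked against vehicle controls as a simple ratio.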

[1] = dose: 25.0 mg/kg/injection, schedule: Q01DX009 (ip), vehicle: saline with Tween-80
[2] = dose: 50.0 mg/kg/injection, schedule: Q01DX009 (ip), vehicle: saline with Tween-80
[3] = dose: 100.0 mg/kg/injection, schedule: Q01DX009 (ip), vehicle: saline with Tween-80
[4] = dose: 100.0 mg/kg/injection, schedule: Q04DX003 (ip), vehicle: saline with Tween-80
[5] = dose: 100.0 mg/kg/injection, schedule: Q01DX009 (ip), vehicle: Klucel (hydroxypropylcellulose) (HPC)
[6] = dose: 200.0 mg/kg/injection, schedule: Q01DX009 (ip), vehicle: Klucel (hydroxypropylcellulose) (HPC)
[7] = dose: 100.0 mg/kg/injection, schedule: Q01DX001 (ip), vehicle: carboxymethylcellulose (CMC)
[8] = dose: 200.0 mg/kg/injection, schedule: Q01DX001 (ip), vehicle: carboxymethylcellulose (CMC)
[9] = dose: 200.0 mg/kg/injection, schedule: Q01DX009 (ip), vehicle: saline with Tween-80
[10] = dose: 100.0 mg/kg/injection, schedule: Q04DX003 (ip), vehicle: Klucel (hydroxypropylcellulose) (HPC)
[11] = dose: 200.0 mg/kg/injection, schedule: Q04DX003 (ip), vehicle: Klucel (hydroxypropylcellulose) (HPC)
[12] = dose: 400.0 mg/kg/injection, schedule: Q01DX009 (ip), vehicle: Klucel (hydroxypropylcellulose) (HPC)
[13] = dose: 400.0 mg/kg/injection, schedule: Q04DX003 (ip), vehicle: Klucel (hydroxypropylcellulose) (HPC)
[14] = dose: 100.0 mg/kg/injection, schedule: Q04DX002 (ip), vehicle: Klucel (hydroxypropylcellulose) (HPC)
[15] = dose: 200.0 mg/kg/injection, schedule: Q04DX002 (ip), vehicle: Klucel (hydroxypropylcellulose) (HPC)
[16] = dose: 400.0 mg/kg/injection, schedule: Q04DX002 (ip), vehicle: Klucel (hydroxypropylcellulose) (HPC)
[17] = dose: 50.0 mg/kg/injection, schedule: Q01DX001 (ip), vehicle: saline
[18] = dose: 100.0 mg/kg/injection, schedule: Q01DX001 (ip), vehicle: saline
[19] = dose: 200.0 mg/kg/injection, schedule: Q01DX001 (ip), vehicle: saline
[20] = dose: 400.0 mg/kg/injection, schedule: Q01DX001 (ip), vehicle: saline

Measured: T/C

O/N=C(\C=N\O)c1ccccc1
inactive: dose: 100.0 mg/kg/injection, schedule: Q01DX009 (sc), vehicle: olive oil, sesame oil, peanut oil 109 % of control | dose: 100.0 mg/kg/injection, schedule: Q04DX003 (sc), vehicle: olive oil, sesame oil, peanut oil 98 % of control | dose: 200.0 mg/kg/injection, schedule: Q01DX009 (sc), vehicle: olive oil, sesame oil, peanut oil 112 % of control | dose: 200.0 mg/kg/injection, schedule: Q04DX003 (sc), vehicle: olive oil, sesame oil, peanut oil 101 % of control | dose: 400.0 mg/kg/injection, schedule: Q01DX009 (sc), vehicle: olive oil, sesame oil, peanut oil 98 % of control

CC(=O)Oc1cc(C)c(OC(C)=O)c(C)c1C
inactive: [1] 108 % of control | dose: 25.0 mg/kg/injection, schedule: Q04DX003 (ip), vehicle: saline with Tween-80 92 % of control | [2] 103 % of control | dose: 50.0 mg/kg/injection, schedule: Q04DX003 (ip), vehicle: saline with Tween-80 94 % of control | [3] 96 % of control | [4] 100 % of control and 103 % of control

CN(C)c1ccc(P(=O)(c2ccc(N(C)C)cc2)c2ccc(N(C)C)cc2)cc1.CN(C)c1ccc(P(=O)(c2ccc(N(C)C)cc2)c2ccc(N(C)C)cc2)cc1.[Cl][Sn]([Cl])([Cl])[Cl]
inactive: dose: 50.0 mg/kg/injection, schedule: Q01DX009 (ip), vehicle: Klucel (hydroxypropylcellulose) (HPC) 87 % of control | [5] 91 % of control | [6] 94 % of control

c1ccc2c(c1)CCC1NC21 (stereo not drawn)
inactive: [7] 103 % of control | [8] 105 % of control

Cc1ccc(NC(=O)Nc2ccccc2F)cc1NC(=O)Nc1ccccc1F
inactive: [3] 93 % of control | [9] 88 % of control | dose: 400.0 mg/kg/injection, schedule: Q01DX009 (ip), vehicle: saline with Tween-80 94 % of control

CS(=O)(=O)OCC(=O)COS(C)(=O)=O
inactive: dose: 1.25 mg/kg/injection, schedule: Q01DX009 (ip), vehicle: saline 95 % of control | dose: 2.5 mg/kg/injection, schedule: Q01DX009 (ip), vehicle: saline 93 % of control | dose: 10.0 mg/kg/injection, schedule: Q01DX009 (ip), vehicle: saline 116 % of control

CCCCCCCCNC1=C(OC)C(=O)C(NCCCCCCCC)=C(OC)C1=O
inactive: [5] 98 % of control | [10] 96 % of control | [6] 104 % of control | [11] 91 % of control | [12] 98 % of control | [13] 88 % of control

Cc1nc(N)[nH]c(=O)c1CCCNC(=O)c1ccc(C(=O)CBr)cc1
inactive: dose: 50.0 mg/kg/injection, schedule: Q01DX001 (ip), vehicle: Klucel (hydroxypropylcellulose) (HPC) 90 % of control | dose: 200.0 mg/kg/injection, schedule: Q01DX001 (ip), vehicle: Klucel (hydroxypropylcellulose) (HPC) 93 % of control

COC1OC2COC(c3ccccc3)OC2C(O)C1OC(N)=S (stereo not drawn)
inactive: dose: 25.0 mg/kg/injection, schedule: Q04DX002 (ip), vehicle: Klucel (hydroxypropylcellulose) (HPC) 98 % of control | dose: 50.0 mg/kg/injection, schedule: Q04DX002 (ip), vehicle: Klucel (hydroxypropylcellulose) (HPC) 98 % of control | [14] 88 % of control | [15] 100 % of control | [16] 96 % of control

COc1ccc(/C=N/NC(=O)C(O)c2ccccc2)cc1 (stereo not drawn)
inactive: [5] 92 % of control | [6] 99 % of control | [12] 86 % of control

CCCC(C)NCCOC(=O)Nc1ccccc1 (stereo not drawn)
inactive: dose: 75.0 mg/kg/injection, schedule: Q01DX001 (ip), vehicle: saline 91 % of control | dose: 150.0 mg/kg/injection, schedule: Q01DX001 (ip), vehicle: saline 101 % of control

CC(=O)CC(=O)Nc1ccc(C)c(C)c1
inactive: dose: 100.0 mg/kg/injection, schedule: Q01DX009 (ip), vehicle: saline 102 % of control | dose: 200.0 mg/kg/injection, schedule: Q01DX009 (ip), vehicle: saline 102 % of control | dose: 400.0 mg/kg/injection, schedule: Q01DX009 (ip), vehicle: saline 93 % of control

CC(=O)OCC(OC(C)=O)C(OC(C)=O)C(/C=C/N=[N+]([O-])c1ccccc1)OC(C)=O (stereo not drawn)
inactive: [17] 100 % of control | [18] 94 % of control | [19] 100 % of control

CSc1ccccc1NC(=O)c1ccccc1
inactive: [14] 93 % of control | [15] 86 % of control | [16] 96 % of control

Oc1ccc2ccc(Cl)cc2c1
inactive: [7] 95 % of control | [8] 90 % of control | dose: 400.0 mg/kg/injection, schedule: Q01DX001 (ip), vehicle: carboxymethylcellulose (CMC) 95 % of control

O=C1c2cc(Br)cc(Br)c2NCCCC1(Br)Br
inactive: [10] 94 % of control | [11] 97 % of control | [13] 94 % of control

Cc1ccc(S(=O)(=O)OCC2C(COS(=O)(=O)c3ccc(C)cc3)C3C4C5C2C2C3C4C52)cc1 (stereo not drawn)
inactive: [14] 98 % of control | [15] 90 % of control | [16] 94 % of control

CCOC(=O)c1cnc(SC)[nH]c1=O
inactive: [17] 92 % of control | [18] 95 % of control | [19] 98 % of control | [20] 98 % of control

CC1CCc2nc3ccccc3nc21 (stereo not drawn)
inactive: [18] 91 % of control | [19] 97 % of control | [20] 91 % of control

CC(=O)Nc1ccc(/C=N/NC(=O)CNC(=O)Nc2cccc(Cl)c2)cc1
inactive: dose: 12.5 mg/kg/injection, schedule: Q01DX009 (ip), vehicle: saline with Tween-80 95 % of control | [1] 95 % of control | [2] 87 % of control and 91 % of control

CN1C(=O)C2(C)CCC1c1ccccc12 (stereo not drawn)
inactive: dose: 100.0 mg/kg/injection, schedule: Q01DX001 (ip), vehicle: other 103 % of control | dose: 200.0 mg/kg/injection, schedule: Q01DX001 (ip), vehicle: other 103 % of control

Cn1nnn2c(-c3ccccc3)nnc12
inactive: [3] 97 % of control | [4] 105 % of control | [9] 105 % of control | dose: 200.0 mg/kg/injection, schedule: Q04DX003 (ip), vehicle: saline with Tween-80 97 % of control | dose: 400.0 mg/kg/injection, schedule: Q04DX003 (ip), vehicle: saline with Tween-80 100 % of control

CC(C)CCOC(OCCC(C)C)OCCC(C)C
inactive: [18] 100 % of control | [19] 97 % of control | [20] 105 % of control

COc1ccc(C2CCCCCC2OS(C)(=O)=O)c(OC)c1OC (stereo not drawn)
inactive: [7] 108 % of control | [8] 119 % of control

CC[N+](C)(CC)CCSC(=O)Nc1ccc(Cc2ccc(NC(=O)SCC[N+](C)(CC)CC)cc2)cc1
inactive: dose: 10.0 mg/kg/injection, schedule: Q04DX003 (ip), vehicle: Klucel (hydroxypropylcellulose) (HPC) 96 % of control | dose: 12.5 mg/kg/injection, schedule: Q01DX009 (ip), vehicle: Klucel (hydroxypropylcellulose) (HPC) 103 % of control | dose: 20.0 mg/kg/injection, schedule: Q04DX003 (ip), vehicle: Klucel (hydroxypropylcellulose) (HPC) 96 % of control

Source: PubChem BioAssay AID248 (DTP/NCI, 2004)
